From patent US20090247611A1, “METHOD OF TREATING A CANCER WITH A SURVIVIN ANTISENSE OLIGONUCLEOTIDE AND PACLITAXEL” (priority 2004, published 2009)

Legend:
[1] = tested on: U-87 MG human glioblastoma; assay: human xenograft tumor model, tumor growth delay; format: in vivo; conditions: U-87 MG s.c. xenograft; oligonucleotide 50 mg/kg loading then 25 mg/kg i.v. every other day; gemcitabine HCl 2.5 mg/kg i.p. every third day x4
Description: The use of human xenograft tumor models has been described previously and is well known in the art. The following tumor types can be used to conduct the assay as described below. U-87 MG human glioblastoma are obtained from […] et al., Neoplasia (2000) 2(3):242-50). For xenograft studies, just before implantation, animals are irradiated (450 TBI (total body irradiation)), and cells are mixed in matrigel (1:1). […] All subsequent intravenous doses (25 mg/kg) of Compound I or MM control oligonucleotide are administered every other day. The treatment with sub-optimal doses of gemcitabine HCl, doxorubicin HCl, or paclitaxel is initiated one day following the loading dose. Gemcitabine HCl is administered intraperitoneally at 2.5 mg/kg every third day for a total of four doses. Paclitaxel is administered intravenously at 1 mg/kg every fourth day for a total of four doses. Bi-dimensional measurements are performed twice per week, and tumor volumes are calculated based on the following formula: […] Tumor volume data are transformed to a log scale to equalize variance across time and treatment groups. The data are analyzed using a two-way analysis of variance by time and treatment using SAS PROC MIXED software (SAS Institute, Inc., Cary, N.C.). The preferred correlation model for the repeated measures is AR (Auto Regressive of order 1). Treatment groups are compared at each time point. The data are plotted as means and standard errors for each treatment group versus time. The presence of synergy in combination therapies is assessed on the tumor growth delay (TGD) scale. The time to reach a specified tumor size (1500 or 2000 or 2500 mg in this study) is determined for each animal. […] Maximum likelihood analysis assuming a Weibull distribution is used to calculate mean times and standard errors for each treatment group. Tumor growth delay is the difference in mean times between each of the treated groups and the control group.

HeLa cells = assay: cell based caspase 3 assay; conditions: oligonucleotide 50 nM transfected 24 h, then 10 nM gemcitabine HCl or 1.25 nM paclitaxel for additional 48 h, compared to untreated control
Description: The assay is performed as described below.
HeLa cells are obtained from ATCC, Manassas, Va. and are cultured in DMEM with L-Glutamine medium (Gibco/Invitrogen) supplemented with 10% Fetal Bovine Serum (Hyclone), 0.1 mM Non-Essential Amino Acids, and 1 mM Sodium Pyruvate (Gibco/Invitrogen). For the caspase-3 assay, 96-well plates are plated with 1×10^4 cells/well. […] Caspases-3 activity is measured by reading proteolytically released fluor from the Ac-DEVD-AMC substrate using a plate-reading fluorometer with excitation at 360 nm and emission at 460 nm. After subtracting the plate background, the relative fluorescence units (RFU) are compared to untreated control and expressed as percentage increase in caspase-3 activity.
To investigate whether down-regulation of Survivin expression sensitizes HeLa cells to chemotherapy, combination treatment with Compound I and either gemcitabine HCl, doxorubicin HCl, or paclitaxel is evaluated. […] At the end of the incubation period, casapse-3 activity is measured. […] Data are expressed as percentage caspase-3 activity compared to untreated control.

| SMILES | Tumor Growth Delay at 1500 mg, Mean ± S.E.M. [1] [days] | Tumor Growth Delay at 2000 mg, Mean ± S.E.M. [1] [days] | Tumor Growth Delay at 2500 mg, Mean ± S.E.M. [1] [days] | Mean (% Caspase-3 Activity) (HeLa cells) [%] |
| --- | --- | --- | --- | --- |
| Cl.Nc1ccn([C@@H]2O[C@H](CO)[C@@H](O)C2(F)F)c(=O)n1 (single isomer, unassigned) [Gemcitabine HCl, 2′-deoxy-2′,2′-difluorocytidine monohydrochloride (⊖-isomer)] | 0.3 ± 1.1 | 0.3 ± 1.2 | 0.6 ± 1 | 24.33 |
| CC(=O)O[C@H]1C(=O)[C@@]2(C)[C@H]([C@H](OC(=O)c3ccccc3)[C@]3(O)C[C@H](OC(=O)[C@H](O)[C@@H](NC(=O)c4ccccc4)c4ccccc4)C(C)=C1C3(C)C)[C@]1(OC(C)=O)CO[C@@H]1C[C@@H]2O [Paclitaxel, 5β, 20-Epoxy-1,2α,4,7β,10β,13α-hexahydroxytax-11-en-9-one 4,10-diacetate 2-benzoate 13-ester with (2R,3 S)—N-benzoyl-3-phenylisoserine] |  |  |  | 12.77 |
